# From PMC9952466, “Characterization of Antioxidant and α-Glucosidase Inhibitory Compounds of Cratoxylum formosum ssp. pruniflorum and Optimization of Extraction Condition” (Antioxidants, 2023)
# System: α-glucosidase from Saccharomyces cerevisiae (EC 3.2.1.20)
# Experiment: α-glucosidase inhibitory effect (p-nitrophenyl α-D-glucopyranoside, absorbance 405 nm)
# Type: biochemical
# Conditions: not given
# Description: (§1) The inhibitory effect on α-glucosidase was measured using α-glucosidase from Saccharomyces cerevisiae (EC 3.2.1.20). A test sample was mixed with 80 μL enzyme buffer and 10 μL α-glucosidase and incubated for 15 min at 37 °C. Then, after the addition of 10 μL p-nitrophenyl α-D-glucopyranoside solution for enzyme reaction, the amount of p-nitrophenol that was cleaved by the enzyme was determined by measuring the absorbance at 405 nm in a 96-well microplate reader. Acarbose was used as a positive control. The antioxidant activity was evaluated by measuring the DPPH radical scavenging activity using ascorbic acid as a positive control.
row,α-glucosidase inhibitory activity (in words),Molecule
1,weak effect,"O=C(c1ccccc1)c1cc(O)c(O)c(OC2OC(CO)C(O)C(O)C2O)c1 (stereo not drawn) [Compound 19, pruniflonone B]"
2,good inhibition,"Oc1cc(O)c2c(c1)O[C@H](c1ccc(O)c(O)c1)[C@H](O)C2 [Compound 21, epicatechin]"
3,reduced the efficacy,"CC(C)=CCc1c(O)c(O)cc2c(=O)c3c(O)cc(O)cc3oc12 [Compound 1, cochinchinone F]"

# System: not listed separately
# Experiment: antioxidant activity by DPPH radical scavenging
# Conditions: DPPH radical scavenging
# Description: as §1
row,Molecule,antioxidant activity (in words)
1,"CC(C)=CCc1c(O)c(O)c(C/C=C(\C)CCCC(C)(C)O)c2oc3ccc(O)cc3c(=O)c12 [Compound 16, pruniflonone A]",weak efficacy
2,"O=C(c1ccccc1)c1cc(O)c(O)c(OC2OC(CO)C(O)C(O)C2O)c1 (stereo not drawn) [Compound 19, pruniflonone B]",weak effect

# Same assay, conditions: at 50 μM
row,Molecule,DPPH radical scavenging activity
1,"CC(C)=CCc1c(O)cc2oc3cc(O)c(O)c(CC=C(C)C)c3c(=O)c2c1O [Compound 6, γ-mangostin]",more than 50%
2,"O=c1c2cc(O)c(O)cc2oc2cc(O)c([C@@H]3O[C@H](CO)[C@@H](O)[C@H](O)[C@H]3O)c(O)c12 [Compound 18, mangiferin]",more than 50%
3,"COc1cc2c(=O)c3c(O)c(O)c(O)cc3oc2cc1O [Compound 17, caloxanthone E]",more than 50%
4,isocudraniaxanthone B [Compound 3],more than 50%
